Assay results reported in patent US4692448A, “Bis(arylpiperazinyl)sulfur compounds” (Boehringer Ingelheim Pharmaceuticals, Inc., priority 1984, dated 1987).
Counter-ions that a name gives are not always drawn. Like-named read-outs stand apart in the source and are kept apart here.

What was measured:
[1] = test system: histamine release from human leukocytes (basophils); assay: Human basophil assay: inhibition of anti-IgE-induced (IgE-mediated) histamine release; format: cell-based; details: for IC50: Leukocyte; for inhibition of histamine release in human basophils (in words): IgE-mediated, in vitro
Description: In the experiments reported by this example compounds in accordance with the invention are evaluated to determine their ability to inhibit the IgE-mediated release of histamine from sensitized peripheral leucocytes (basophils). Separation of leukocytes is accomplished by a modification of the method of L. Lichtenstein and A. Osler, J. Exp. Med. 120: 507 (1964). Heparinized human blood (80-100 ml) is mixed with 20 ml of saline (0.2%) containing 0.6 g of dextrose and 1.2 g of dextran in propylene centrifuge tubes. The mixture is kept at ambient temperature for 60-90 minutes to allow the separation of erythrocytes from the platelet-leukocyte-rich supernate. The supernate is removed and centrifuged for 8 minutes at 10×g in the cold. The leukocyte pellet is washed twice with Tris buffer and finally suspended in 150-180 ml Tris-ACM buffer at 1-2×10^6 cells/ml. The reaction is carried out in 12×75 mm plastic tubes at a total volume of […]. The reaction medium includes 0.05 ml rabbit anti-human IgE, 0.2 ml of the test compound in Tris-ACM buffer at concentrations ranging from 10-1000 μM, and 1.0 ml of the leukocyte suspension. The reaction mixture is incubated in a 37° C. shaking water bath for 60 minutes. Upon completion of the reaction, the tubes are centrifuged and the supernatants collected. The protein is removed from the supernatants by precipitation with 0.2 ml of 8% perchloric acid. Histamine release is measured by the automated fluorometric method of W Siraganian and W. Hook in Chapter 108, pages 808-821 of the Manual of Clinical Immunology, 2nd Edition, edited by R. Rose and H. Friedman, published by the American Society for Microbiology, Washington, D.C., 1980. Percent inhibition is calculated as follows: [formula] The concentration which causes a 50 percent inhibition (1C50) of histamine release is interpolated from a plot of percent inhibition versus the logarithm of drug concentration.

[2] = test system: histamine release from basophils activated by ionophore A-23187; assay: Human basophil assay: inhibition of histamine release induced by non-immunological ionophore A-23187; format: cell-based; details: 1000-fold test dosage range
Description: Separation of leukocytes is accomplished by a modification of the method of L. Lichtenstein and A. Osler, J. Exp. Med. 120: 507 (1964). Heparinized human blood (80-100 ml) is mixed with 20 ml of saline (0.2%) containing 0.6 g of dextrose and 1.2 g of dextran in propylene centrifuge tubes. The mixture is kept at ambient temperature for 60-90 minutes to allow the separation of erythrocytes from the platelet-leukocyte-rich supernate. The supernate is removed and centrifuged for 8 minutes at 10×g in the cold. The leukocyte pellet is washed twice with Tris buffer and finally suspended in 150-180 ml Tris-ACM buffer at 1-2×10^6 cells/ml.
The reaction is carried out in 12×75 mm plastic tubes at a total volume of 1.23 ml. […] The reaction mixture is incubated in a 37° C. shaking water bath for 60 minutes. Upon completion of the reaction, the tubes are centrifuged and the supernatants collected. The protein is removed from the supernatants by precipitation with 0.2 ml of 8% perchloric acid.
Histamine release is measured by the automated fluorometric method of W Siraganian and W. Hook in Chapter 108, pages 808-821 of the Manual of Clinical Immunology, 2nd Edition, edited by R. Rose and H. Friedman, published by the American Society for Microbiology, Washington, D.C., 1980. Percent inhibition is calculated as follows: [formula] […]

lipoxygenase pathway = assay: Blocking the metabolic conversion of arachidonic acid in the lipoxygenase pathway; details: no method or data given
[3] = 1 h, human basophils, rabbit anti-human IgE, 37° C., 60 minutes, read-out: IN VITRO INHIBITION OF HISTAMINE RELEASE IC50

SMILES	IC50 [1, 3]	further results
Clc1ccc(CN2CCN(CCCSSCCCN3CCN(Cc4ccc(Cl)cc4)CC3)CC2)cc1 [Example 1, 1,1'-(Dithiodi-3,1-propanediyl)bis[4-(4-chlorobenzyl)piperazine]]	2 µM	–
O=S(=O)(CCCN1CCN(Cc2ccc(Cl)cc2)CC1)CCCN1CCN(Cc2ccc(Cl)cc2)CC1 [Example 7, 1,1'-(sulfonyl-3,1-propanediyl) bis[4-(4-chlorobenzyl)piperazine] tetrahydrochloride]	3.4 µM	–
[O-][S+](CCCN1CCN(Cc2ccc(Cl)cc2)CC1)CCCN1CCN(Cc2ccc(Cl)cc2)CC1 [Example 6, 1,1'-(sulfinyl-3,1-propanediyl) bis[4-(4-chlorobenzyl)piperazine] tetrahydrochloride]	5.6 µM	–
Cl.Cl.Cl.Cl.Clc1ccc(CCCN2CCN(CCSSCCN3CCN(CCCc4ccc(Cl)cc4)CC3)CC2)cc1 [Example 13, 1,1'-(dithiodi-2,1-ethanediyl)bis{4-[3-(4-chlorophenyl)propyl]piperazine} tetrahydrochloride]	> 1000 µM	inhibition of histamine release in human basophils (in words) [1]: absence of observed activity
Cc1ccc(CN2CCN(CCSSCCN3CCN(Cc4ccc(C)cc4)CC3)CC2)cc1 [Example 12, 1,1'-(dithiodi-2,1-ethanediyl)bis[4-(4-methylbenzyl)piperazine] tetrahydrochloride]	4.7 µM	–
Cc1ccccc1CN1CCN(CCSSCCN2CCN(Cc3ccccc3C)CC2)CC1 [Example 3, 1,1'-(dithiodi-2,1-ethanediyl)bis[4-(2-methylbenzyl)piperazine]tetrahydrochloride]	15 µM	–
Clc1ccc(CN2CCN(CCCSCCCN3CCN(Cc4ccc(Cl)cc4)CC3)CC2)cc1 [Example 5, 1,1'-(thio-3,1-propanediyl) bis-[4-(4-chlorobenzyl)piperazine] tetrahydrochloride]	1.9 µM	–
Cl.Cl.Cl.Cl.Clc1ccc(CCN2CCN(CCCSSCCCN3CCN(CCc4ccc(Cl)cc4)CC3)CC2)cc1 [Example 10, 1,1'-(dithiodi-3,1-propanediyl)-bis [4-(4-chlorophenethyl)piperazine] tetrahydrochloride]	> 1000 µM	inhibition of histamine release in human basophils (in words) [1]: absence of observed activity

Now from value to compound, other results behind:

IC50 [1, 3]	SMILES	further results
28 µM	N#Cc1ccc(CN2CCN(CCSSCCN3CCN(Cc4ccc(C#N)cc4)CC3)CC2)cc1 [Example 8, 1,1'-(dithiodi-2,1-ethanediyl)bis[4-(4-cyanobenzyl)piperazine] tetrahydrochloride]	–
> 1000 µM	Clc1ccc(CN2CCCN(CCCSSCCCN3CCCN(Cc4ccc(Cl)cc4)CC3)CC2)cc1 [Example 11, 1,1'-(dithiodi-3,1-propanediyl)bis[4-(4-chlorobenzyl)homopiperizine] tetrahydrochloride]	inhibition of histamine release in human basophils (in words) [1]: absence of observed activity
2.4 µM	Clc1ccc(CN2CCN(CCSSCCN3CCN(Cc4ccc(Cl)cc4)CC3)CC2)cc1 [Example 2, 1,1'-(dithiodi-2,1-ethanediyl)bis[4-(4-chlorobenzyl)piperazine]tetrahydrochloride]	IC50 ([1]; Homo sapiens, anti-IgE, further repetition of testing, read-out: IC50 (histamine release), further repetition): 5.29 µM; IC50 ([1]; Homo sapiens, anti-IgE, range of concentrations up to the limits of its solubility, read-out: IC50 (histamine release)): 3.7 µM; IC50 [2]: 2.67 µM; blocking the metabolic conversion of arachidonic acid in the lipoxygenase pathway (in words) (lipoxygenase pathway): effective in blocking
2.4 µM	Clc1ccc(CN2CCN(CCCSCCN3CCN(Cc4ccc(Cl)cc4)CC3)CC2)cc1 [Example 4, {2-[4-(4-chlorobenzyl)piperazin-1-yl)ethyl}{3-[4-(4-chlorobenzyl)piperazin-1-yl]propyl}sulfide tetrahydrochloride]	–
13.7 µM	c1ccc(CN2CCN(CCCSSCCCN3CCN(Cc4ccccc4)CC3)CC2)cc1 [Example 9, 1,1'-(dithiodi-3,1-propanediyl)bis(4-benzylpiperazine) tetrahydrochloride]	–
